Test results from ChEMBL document CHEMBL1201862, “PubChem BioAssay data set” (2004).
Several values for one entry are separate records, joined by “and”; a condition that tells them apart may be missing. Equal entries are not always repeated.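 96-well plates; 48 h exposure; 5 concentrations. Endpoints by linear interpolation between flanking doses. Not reached: highest tested concentration assigned. GI50 is the concentration that inhibits growth by half.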 Activity calls are given as the source filed them. No stated cut-off is given here; in the data, active = GI50 up to about 1.1 µM and inactive = higher.

Legend:
Test in all cases: NCI-60 cell line screen, 48 h
786-0 = test system: 786-0
Hs-578T = test system: Hs-578T
SK-OV-3 = test system: SK-OV-3
SF-539 = test system: SF-539
TK-10 = test system: TK-10
MDA-MB-435 = test system: MDA-MB-435
OVCAR-5 = test system: OVCAR-5
DU-145 = test system: DU-145
HOP-62 = test system: HOP-62
U-251 = test system: U-251
IGROV-1 = test system: IGROV-1
SW-620 = test system: SW-620
A498 = test system: A498
ACHN = test system: ACHN
M14 = test system: M14
LOX IMVI = test system: LOX IMVI
HL-60 = test system: HL-60
CCRF-CEM = test system: CCRF-CEM
RXF 393 = test system: RXF 393

Measured: GI50

N#CC1=CNc2sccc2S1(=O)=O
inactive: 786-0 > 100 µM | Hs-578T > 100 µM | SK-OV-3 > 100 µM | SF-539 > 100 µM | TK-10 > 100 µM | MDA-MB-435 89.7 µM | OVCAR-5 > 100 µM | DU-145 > 100 µM | HOP-62 > 100 µM | U-251 > 100 µM | IGROV-1 > 100 µM | SW-620 > 100 µM | A498 > 100 µM | ACHN > 100 µM | M14 > 100 µM | LOX IMVI > 100 µM

Cc1ccc(S(=O)(=O)NC(=O)NC(CO)C(=O)O)cc1 (centres undefined)
inactive: HL-60 > 100 µM | CCRF-CEM > 100 µM | 786-0 > 100 µM | Hs-578T > 100 µM | SK-OV-3 > 100 µM | SF-539 > 100 µM | TK-10 > 100 µM | OVCAR-5 > 100 µM | DU-145 > 100 µM | HOP-62 > 100 µM | U-251 > 100 µM | IGROV-1 > 100 µM | SW-620 > 100 µM | ACHN > 100 µM | M14 > 100 µM | RXF 393 > 100 µM | LOX IMVI > 100 µM

Cc1nc(N)sc1/N=N/c1cc(Cl)c([N+](=O)[O-])cc1Cl
inactive: HL-60 22.9 µM | CCRF-CEM 11.8 µM | 786-0 19.7 µM | Hs-578T 21.9 µM | SK-OV-3 74.6 µM | SF-539 17.3 µM | TK-10 21.4 µM | MDA-MB-435 19.4 µM | OVCAR-5 31.3 µM | DU-145 13.6 µM | HOP-62 33.7 µM | U-251 16.3 µM | IGROV-1 20.1 µM | SW-620 16.4 µM | ACHN 20.4 µM | M14 50.4 µM | RXF 393 34.4 µM | LOX IMVI 16.9 µM

COCOc1c(C(OCOC)c2cnc(Sc3ccccc3)n2C)ccc(OC)c1OC (centres undefined)
inactive: HL-60 > 100 µM | CCRF-CEM > 100 µM | 786-0 > 100 µM | Hs-578T 94.4 µM | SK-OV-3 > 100 µM | SF-539 > 100 µM | TK-10 > 100 µM | MDA-MB-435 > 100 µM | OVCAR-5 > 100 µM | DU-145 > 100 µM | HOP-62 > 100 µM | U-251 > 100 µM | IGROV-1 > 100 µM | SW-620 > 100 µM | ACHN > 100 µM | RXF 393 83.4 µM | LOX IMVI > 100 µM

CCOC(=O)NCC(=O)NCC(=O)NCC(N)=O
inactive: CCRF-CEM > 100 µM | 786-0 > 100 µM | Hs-578T > 100 µM | SK-OV-3 > 100 µM | TK-10 > 100 µM | MDA-MB-435 > 100 µM | OVCAR-5 > 100 µM | DU-145 > 100 µM | HOP-62 > 100 µM | U-251 > 100 µM | IGROV-1 > 100 µM | SW-620 > 100 µM | ACHN > 100 µM | M14 > 100 µM | RXF 393 > 100 µM

C=CCCCN(C(=O)c1ccccc1)c1ccc(C(=O)OC)o1
inactive: HL-60 19.3 µM | 786-0 > 100 µM | Hs-578T > 100 µM | SK-OV-3 > 100 µM | SF-539 > 100 µM | TK-10 > 100 µM | OVCAR-5 > 100 µM | DU-145 > 100 µM | HOP-62 > 100 µM | IGROV-1 > 100 µM | A498 > 100 µM | ACHN > 100 µM | M14 > 100 µM | RXF 393 > 100 µM | LOX IMVI > 100 µM

Cc1nc2sc3ccccc3n2c(=O)c1/N=N/c1ccc(Cl)cc1
inactive: HL-60 > 100 µM | CCRF-CEM > 100 µM | 786-0 > 100 µM | Hs-578T > 100 µM | SK-OV-3 > 100 µM | SF-539 > 100 µM | TK-10 > 100 µM | MDA-MB-435 > 100 µM | OVCAR-5 > 100 µM | DU-145 > 100 µM | HOP-62 > 100 µM | U-251 > 100 µM | IGROV-1 > 100 µM | SW-620 > 100 µM | ACHN > 100 µM | M14 > 100 µM | RXF 393 > 100 µM | LOX IMVI > 100 µM

N#Cc1c(-c2ccccc2)c(C#N)c(=S)n(C2OC(CO)C(O)C(O)C2O)c1N (centres undefined)
inactive: HL-60 > 100 µM | CCRF-CEM > 100 µM and 50.9 µM | 786-0 > 100 µM | Hs-578T 79.8 µM | SF-539 > 100 µM | OVCAR-5 > 100 µM and 85.1 µM | DU-145 > 100 µM | U-251 > 100 µM | SW-620 > 100 µM | A498 38.7 µM and 44.2 µM | ACHN 99.8 µM and 61.2 µM | M14 > 100 µM | RXF 393 > 100 µM | LOX IMVI 86.9 µM

CC1CN=C(Nc2ccc(S(N)(=O)=O)cc2)S1 (centres undefined)
inactive: HL-60 > 100 µM | CCRF-CEM > 100 µM | 786-0 > 100 µM | Hs-578T > 100 µM | SK-OV-3 > 100 µM | SF-539 > 100 µM | TK-10 > 100 µM | OVCAR-5 > 100 µM | DU-145 > 100 µM | HOP-62 > 100 µM | U-251 > 100 µM | IGROV-1 > 100 µM | SW-620 > 100 µM | A498 > 100 µM | ACHN > 100 µM | M14 > 100 µM | LOX IMVI > 10 µM

COC(=O)C1CCC(=O)N1C(c1ccccc1)c1ccc(OC)c(OC)c1 (centres undefined)
inactive: HL-60 > 100 µM | CCRF-CEM > 10 µM | 786-0 > 100 µM | Hs-578T > 100 µM | SK-OV-3 > 100 µM | SF-539 > 100 µM | TK-10 > 100 µM | MDA-MB-435 > 100 µM | OVCAR-5 > 100 µM | DU-145 > 100 µM | HOP-62 > 100 µM | U-251 > 100 µM | IGROV-1 > 100 µM | SW-620 > 100 µM | A498 > 100 µM | ACHN > 100 µM | M14 > 100 µM | LOX IMVI > 100 µM

Cc1ccc(N(C(=O)Nc2ccc(F)c(Cl)c2)C2=NCC(C)S2)cc1 (centres undefined)
inactive: HL-60 23.8 µM | CCRF-CEM 42.2 µM | 786-0 57.8 µM | Hs-578T > 100 µM | SK-OV-3 > 100 µM | SF-539 76.9 µM | TK-10 29.7 µM | OVCAR-5 > 100 µM | DU-145 > 100 µM | HOP-62 > 100 µM | U-251 50.6 µM | IGROV-1 > 100 µM | SW-620 74 µM | A498 34.3 µM | ACHN 50.2 µM | LOX IMVI 30.2 µM

CCOC(=O)Cc1ccc(Nc2nc3cc(F)c(F)cc3nc2C(=O)OCC)cc1
inactive: HL-60 39.3 µM | CCRF-CEM 42.8 µM | 786-0 > 100 µM | Hs-578T 64.7 µM | SK-OV-3 > 100 µM | SF-539 > 100 µM | TK-10 > 100 µM | MDA-MB-435 65.6 µM | OVCAR-5 > 100 µM | DU-145 25.9 µM | HOP-62 > 100 µM | U-251 28.9 µM | IGROV-1 28.7 µM | SW-620 43.7 µM | ACHN 18.4 µM | M14 35.1 µM | RXF 393 33.9 µM | LOX IMVI 28.1 µM

Cc1nc2c(o1)C(=O)c1ccccc1/C2=N/c1ccccn1
inactive: HL-60 15.5 µM | CCRF-CEM 18.5 µM | 786-0 25.6 µM | Hs-578T 14.8 µM | SK-OV-3 > 100 µM | SF-539 18.2 µM | TK-10 > 100 µM | MDA-MB-435 17.9 µM | OVCAR-5 17.9 µM | HOP-62 18.4 µM | U-251 16.8 µM | IGROV-1 22.6 µM | SW-620 17.8 µM | A498 16.7 µM | ACHN 17.3 µM | M14 18.6 µM | RXF 393 > 100 µM | LOX IMVI 19.1 µM

COc1cc2c(cc1OC)C(=O)/C(=C/c1ccc([N+](=O)[O-])cc1)CC2
inactive: HL-60 > 10 µM | CCRF-CEM > 10 µM | 786-0 > 10 µM | Hs-578T > 10 µM | SK-OV-3 > 10 µM | SF-539 > 10 µM | TK-10 > 10 µM | MDA-MB-435 > 10 µM | OVCAR-5 > 10 µM | DU-145 > 10 µM | HOP-62 > 10 µM | U-251 > 10 µM | IGROV-1 > 10 µM | SW-620 > 10 µM | ACHN > 10 µM | M14 > 10 µM | RXF 393 > 10 µM | LOX IMVI > 10 µM

COc1c(C)c(C/C=C(\C)CCCCO)c(OC)c2ccccc12
inactive: CCRF-CEM 28.8 µM | 786-0 38 µM | Hs-578T 30.2 µM | SK-OV-3 > 100 µM | SF-539 52.8 µM | TK-10 63.8 µM | MDA-MB-435 32.6 µM | OVCAR-5 83.8 µM | DU-145 45.3 µM | U-251 64.4 µM | IGROV-1 65.8 µM | SW-620 57.3 µM | ACHN 36.1 µM | M14 37.2 µM | RXF 393 79.6 µM | LOX IMVI 18.8 µM

O/N=C1\CCc2nonc2\C1=N/Nc1ccccc1
inactive: HL-60 > 100 µM | CCRF-CEM > 100 µM | 786-0 > 100 µM | Hs-578T > 100 µM | SK-OV-3 > 100 µM | SF-539 > 100 µM | TK-10 > 100 µM | MDA-MB-435 > 100 µM | OVCAR-5 > 100 µM | DU-145 > 100 µM | HOP-62 > 100 µM | U-251 > 100 µM | IGROV-1 > 100 µM | SW-620 > 100 µM | ACHN 43.7 µM | M14 > 100 µM | RXF 393 > 100 µM | LOX IMVI > 100 µM
